Assay results taken from patent publication US8962808B2, “EGFR-related polypeptides and methods of use” (The Research Foundation for the State University of New York, priority 2010, dated 2015).

Key:
[1] = tested on: cancer cells with EGFRvIII expression; details: literature reports; cited from earlier work
[2] = tested on: non-small cell lung cancer; details: NSCLC patients with activating mutations in the EGFR tyrosine kinase domain; cited from earlier work
NIH 3T3 cells = experiment: Western blot of phosphorylation of GFP-tagged EGFRΔ[…] versus WT-EGFR in NIH 3T3 cells; format: cell-based; details: no ligand, FIG. 7A
Description: Dafna Bar-Sagi). Then, we subcloned the novel extracellular deletion mutant Δ[…] into this vector. […]

SY5Y = experiment: IP-western of phosphorylation status of GFP-tagged EGFR mutants in SY5Y cells; format: cell-based, human; details: anti-GFP IP, higher than EGFRvIII, FIG. 7D
Description: Then, we prepared RNA and protein lysates from the transfected cells. We confirmed the identity of the lysates by RT-PCR (FIG. 7C). Next, we evaluated the phosphorylation status of both mutants. Because SY5Y cells expressed endogenous WT-EGFR (21, 22), we used anti-GFP antibody to immunoprecipitate the mutant EGFR polypeptides.

## C#Cc1cccc(Nc2ncnc3cc(OCCOC)c(OCCOC)cc23)c1 [erlotinib]
[1]
  sensitivity of cancer cells with EGFRvIII expression: not as sensitive

## COc1cc2ncnc(Nc3ccc(F)c(Cl)c3)c2cc1OCCCN1CCOCC1 [gefitinib]
[2]
  patient response: dramatic response

## EGFRΔ768: truncated EGFR, in-frame deletion from nucleotide 102 of exon 2 to nucleotide 869 of exon 7
NIH 3T3 cells
  phosphorylation in the absence of ligand (versus WT-EGFR): constitutively active
SY5Y
  autophosphorylation level, difference versus EGFRvIII: ~40%
